The text below walks through data of patent US8962530B2, “Inflammatory bowel disease therapies” (Regents of the University of Colorado, priority 2007, dated 2015).

One experiment has as its system TNBS-induced colitis. Put plainly: Intestinal permeability, Texas Red labeled LPS, TNBS-colitis model. Type of experiment: in vivo. Particulars: TNBS-colitis mice; 60 mg/kg i.p.; labeled LPS gavage after 20 hours, serum four hours later; compared to vehicle control. From the text:
The effectiveness of compounds and methods of the present invention on intestinal barrier protection and treatment of inflammatory bowel disease (IBD) in TNBS (2,4,6-trinitrobenzene sulfonic acid)-induced colitis, an established animal model of inflammatory bowel disease, was examined. TNBS-induced colitis was induced in mice using a modification of techniques previously described. (See Morris et al (1989) Gastroenterology 96:795-803; Boirivant et al (1998) J Exp Med 188:1929-1939; Karhausen et al (2004) J Clin Invest 114:1098-1106.) Mice were shaved on the abdomen (causing total depletion of hair and microlesions) and were then sensitized to subsequent treatment by epicutaneous application of 1% TNBS (Sigma-Aldrich) in 100% ethanol on day minus 7. Seven days later, on day 0, animals were sedated with a 2.5% Tribromoethanol solution in phosphate-buffered saline (14 μl/g body weight), followed by intrarectal administration of a 2.5% TNBS solution in 50% ethanol (5 μl/g body weight). Administration of the 2.5% TNBS solution was carried out using an epidural catheter ([…] Plus Epidural Catheter, Arrow International), which was inserted approximately 6 cm ab ano followed by release of the TNBS solution. […] Four hours later, changes in intestinal permeability were determined by measurement of serum Texas Red labeled LPS levels.

The test system of the next experiment is TNFα mRNA. The experiment in a line: TNFα expression in colonic mucosal scrapings by real-time PCR, TNBS-colitis model. Type of experiment: in vivo. As to conditions: TNBS-colitis mice; 40 mg/kg i.p. on day minus 1, day 0, day 1; day three; compared to non-treated TNBS-colitis mice; p<0.01. The source says: The effectiveness of compounds and methods of the present invention on intestinal barrier protection and treatment of inflammatory bowel disease (IBD) in TNBS (2,4,6-trinitrobenzene sulfonic acid)-induced colitis, an established animal model of inflammatory bowel disease, was examined. TNBS-induced colitis was induced in mice using a modification of techniques previously described. (See Morris et al (1989) Gastroenterology 96:795-803; Boirivant et al (1998) J Exp Med 188:1929-1939; Karhausen et al (2004) J Clin Invest 114:1098-1106.)
Mice were shaved on the abdomen (causing total depletion of hair and microlesions) and were then sensitized to subsequent treatment by epicutaneous application of 1% TNBS (Sigma-Aldrich) in 100% ethanol on day minus 7. Seven days later, on day 0, animals were sedated with a 2.5% Tribromoethanol solution in phosphate-buffered saline (14 μl/g body weight), followed by intrarectal administration of a 2.5% TNBS solution in 50% ethanol (5 μl/g body weight). […]
Amplification cSycle parameters were as follows: 3 minutes at 95° C.; 40 cycles of 45 seconds at 95° C., 30 seconds at 58° C., 30 seconds at 72° C.; followed by repetitive melting cycles to establish amplification product specificity. Comparison of gene expression in a semi-quantitative manner was performed based on the mathematical model of Pfaffl. […]
(Real-time PCR tracks product formation cycle by cycle.)

Structures are written as SMILES.

Take `O=C(O)CNC(=O)c1ncc2cc(Sc3ccccc3)ccc2c1O` [Compound A, [(4-Hydroxy-7-phenylsulfanyl-isoquinoline-3-carbonyl)-amino]-acetic acid]: in the experiment on TNBS-induced colitis, the “serum Texas Red labeled LPS levels (intestinal permeability)” value is on record as “lower levels of serum Texas Red labeled LPS”. The “TNFα mRNA levels in colonic mucosal scrapings” value with TNFα mRNA is on record as “significant decrease”.
